{"source": "the SangsterLogP compilation", "data": [{"smiles": "Cc1ccc(C(=O)N(C)N)cc1", "values": [{"measurement": "logP", "result": 1.57}]}, {"smiles": "CN(N)C(=O)c1ccc([N+](=O)[O-])cc1", "values": [{"measurement": "logP", "result": 0.99}]}, {"smiles": "CN(NC(=S)Nc1ccccc1)C(=O)c1ccc([N+](=O)[O-])cc1", "values": [{"measurement": "logP", "result": 2.69}]}, {"smiles": "COc1ccc(C(=O)N(C)N)cc1", "values": [{"measurement": "logP", "result": 1.23}]}, {"smiles": "O=C(c1ccc([N+](=O)[O-])cc1)N(NC(=S)Nc1ccccc1)c1ccccc1", "values": [{"measurement": "logP", "result": 3.91}]}, {"smiles": "COc1ccc(C(=O)N(N)c2ccccc2)cc1", "values": [{"measurement": "logP", "result": 2.94}]}, {"smiles": "COc1ccc(C(=O)N(C)NC(=S)Nc2ccccc2)cc1", "values": [{"measurement": "logP", "result": 2.8}]}, {"smiles": "NN(C(=O)c1ccccc1)c1ccccc1", "values": [{"measurement": "logP", "result": 2.44}]}, {"smiles": "Cc1ccc(C(=O)N(C)NC(=S)Nc2ccccc2)cc1", "values": [{"measurement": "logP", "result": 2.88}]}, {"smiles": "CN(N)C(=O)c1ccccc1", "values": [{"measurement": "logP", "result": 0.96}]}, {"smiles": "CC=NN(C(=O)c1ccccc1)c1ccccc1", "values": [{"measurement": "logP", "result": 2.88}]}, {"smiles": "NN(C(=O)c1ccc([N+](=O)[O-])cc1)c1ccccc1", "values": [{"measurement": "logP", "result": 2.62}]}, {"smiles": "Cc1ccc(C(=O)N(NC(=S)Nc2ccccc2)c2ccccc2)cc1", "values": [{"measurement": "logP", "result": 4.12}]}, {"smiles": "C/C=N/N(C(=O)c1ccc([N+](=O)[O-])cc1)c1ccccc1", "values": [{"measurement": "logP", "result": 3.14}]}, {"smiles": "C/C=N/N(C(=O)c1ccc(C)cc1)c1ccccc1", "values": [{"measurement": "logP", "result": 3.39}]}, {"smiles": "CC=NN(C(=O)c1ccc(OC)cc1)c1ccccc1", "values": [{"measurement": "logP", "result": 3.27}]}, {"smiles": "Cc1ccc(C(=O)N(N)c2ccccc2)cc1", "values": [{"measurement": "logP", "result": 3.1}]}]}
